According to US10590132B2, “Selective estrogen receptor down-regulators” (AstraZeneca AB, priority 2017, dated 2020):

Experiment: Human plasma protein binding (equilibrium dialysis)
Type: in vitro ADME
Details: dialysis 18 hours
Method: The automated equilibrium dialysis assay in human plasma uses the RED (Rapid Equilibrium Dialysis) Device and sample handling. The assay generally runs over two to three days including delivery of results. After dialysis for 18 hours, plasma and buffer samples are prepared for analysis by liquid chromatography and mass spectrometry. Samples are generally tested in singlicates and quantified by LC/MSMS by using a 7-point calibration curve in plasma. The compounds are pooled together in plasma pools up to 10 compounds. Three reference compounds are used in each run, Propranolol, Metoprolol and Warfarin. Warfarin is used as a control in each pool and Propranolol and Metoprolol are placed randomly in each run. An in-house Excel macro is used for preparation of files for the robot and the mass spectrometer and is also used for the calculations of fraction unbound (fu %) in plasma.

Compound | Human plasma protein binding (% free)
COc1ncc(OCCNCCCF)cc1[C@@H]1c2[nH]c3ccccc3c2C[C@@H](C)N1CC(F)(F)F [Example 36, 3-fluoro-N-(2-((6-methoxy-5-((1R,3R)-3-methyl-2-(2,2,2-trifluoroethyl)-2,3,4,9-tetrahydro-1H-pyrido[3,4-b]indol-1-yl)pyridin-3-yl)oxy)ethyl)propan-1-amine] | 2
Cc1ncc(OCCNCCCF)cc1[C@@H]1c2[nH]c3ccccc3c2C[C@@H](C)N1CC(F)(F)F [Example 37, 3-fluoro-N-(2-((6-methyl-5-((1R,3R)-3-methyl-2-(2,2,2-trifluoroethyl)-2,3,4,9-tetrahydro-1H-pyrido[3,4-b]indol-1-yl)pyridin-3-yl)oxy)ethyl)propan-1-amine] | 2.3
C[C@@H]1Cc2c([nH]c3ccccc23)[C@@](C)(c2cccc(OCCNCCCF)c2)N1CC(F)(F)F [Example 75, N-(2-(3-((1R,3R)-1,3-dimethyl-2-(2,2,2-trifluoroethyl)-2,3,4,9-tetrahydro-1H-pyrido[3,4-b]indol-1-yl)phenoxy)ethyl)-3-fluoropropan-1-amine] | 0.08
C[C@@H]1Cc2c([nH]c3ccccc23)[C@@H](c2c(Cl)ccc(OCCNCCCF)c2Cl)N1C[C@H](C)C(=O)O [Example 128, (S)-3-((1R,3R)-1-(2,6-dichloro-3-(2-((3-fluoropropyl)amino)ethoxy)phenyl)-3-methyl-1,3,4,9-tetrahydro-2H-pyrido[3,4-b]indol-2-yl)-2-methylpropanoic acid] | 15
Cc1c(OCCNCCCF)ccc(F)c1[C@@H]1c2[nH]c3ccccc3c2C[C@@H](C)N1CCC#N [Example 87, 3-((1R,3R)-1-(6-fluoro-3-(2-((3-fluoropropyl)amino)ethoxy)-2-methylphenyl)-3-methyl-1,3,4,9-tetrahydro-2H-pyrido[3,4-b]indol-2-yl)propanenitrile] | 1.6
Cc1c(OCCNCCC(F)F)ccc(F)c1[C@@H]1c2[nH]c3ccc(F)cc3c2C[C@@H](C)N1C[C@@H](C)C(=O)O [Example 162, (R)-3-((1R,3R)-1-(3-(2-((3,3-difluoropropyl)amino)ethoxy)-6-fluoro-2-methylphenyl)-6-fluoro-3-methyl-1,3,4,9-tetrahydro-2H-pyrido[3,4-b]indol-2-yl)-2-methylpropanoic Acid] | 27
Cc1c(OCCNCCCF)ccnc1[C@@H]1c2[nH]c3ccccc3c2C[C@@H](C)N1CC(F)(F)CO [Example 96, 2,2-difluoro-3-((1S,3R)-1-(4-(2-((3-fluoropropyl)amino)ethoxy)-3-methylpyridin-2-yl)-3-methyl-1,3,4,9-tetrahydro-2H-pyrido[3,4-b]indol-2-yl)propan-1-ol] | 7.1
COc1c(F)cc(OCCNCCCF)cc1[C@@H]1c2[nH]c3ccccc3c2C[C@@H](C)N1CC(F)(F)F [Example 27, 3-fluoro-N-(2-(3-fluoro-4-methoxy-5-((1R,3R)-3-methyl-2-(2,2,2-trifluoroethyl)-2,3,4,9-tetrahydro-1H-pyrido[3,4-b]indol-1-yl)phenoxy)ethyl)propan-1-amine] | 0.42
C[C@@H]1Cc2c([nH]c3ccccc23)[C@@H](c2c(F)ccc(OCCN(C)CCCF)c2C(F)F)N1C[C@H](C)C(=O)O [Example 148, (S)-3-((1R,3R)-1-(2-(difluoromethyl)-6-fluoro-3-(2-((3-fluoropropyl)(methyl)amino)ethoxy)phenyl)-3-methyl-1,3,4,9-tetrahydro-2H-pyrido[3,4-b]indol-2-yl)-2-methylpropanoic acid] | 10
C[C@@H]1Cc2c([nH]c3ccccc23)[C@@H](c2cc(OCCNCCCF)ccc2C#N)N1CC(F)(F)F [Example 23, 4-(2-((3-fluoropropyl)amino)ethoxy)-2-((1R,3R)-3-methyl-2-(2,2,2-trifluoroethyl)-2,3,4,9-tetrahydro-1H-pyrido[3,4-b]indol-1-yl)benzonitrile] | 3.7
COc1ccc(OCCNCCCF)c(F)c1[C@@H]1c2[nH]c3ccccc3c2C[C@@H](C)N1CC(F)(F)CO [Example 81, 2,2-difluoro-3-((1R,3R)-1-(2-fluoro-3-(2-((3-fluoropropyl)amino)ethoxy)-6-methoxyphenyl)-3-methyl-1,3,4,9-tetrahydro-2H-pyrido[3,4-b]indol-2-yl)propan-1-ol] | 2.9
C[C@@H]1Cc2c([nH]c3ccccc23)[C@@H](c2cc(OCCNCCCF)ccn2)N1CC(F)(F)F [Example 35, 3-fluoro-N-(2-((2-((1S,3R)-3-methyl-2-(2,2,2-trifluoroethyl)-2,3,4,9-tetrahydro-1H-pyrido[3,4-b]indol-1-yl)pyridin-4-yl)oxy)ethyl)propan-1-amine] | 5.4
C[C@@H]1Cc2c([nH]c3cccc(F)c23)[C@@H](c2c(F)ccc(OCCNCCCF)c2F)N1CC(F)(F)CO [Example 62, 3-((1R,3R)-1-(2,6-difluoro-3-(2-((3-fluoropropyl)amino)ethoxy)phenyl)-5-fluoro-3-methyl-1,3,4,9-tetrahydro-2H-pyrido[3,4-b]indol-2-yl)-2,2-difluoropropan-1-ol] | 1.2
Cc1c(NCCNCCCF)ccc(F)c1[C@@H]1c2[nH]c3ccccc3c2C[C@@H](C)N1C[C@H](C)C(=O)O [Example 135, (S)-3-((1R,3R)-1-(6-fluoro-3-((2-((3-fluoropropyl)amino)ethyl)amino)-2-methylphenyl)-3-methyl-1,3,4,9-tetrahydro-2H-pyrido[3,4-b]indol-2-yl)-2-methylpropanoic acid] | 32
COc1ccc(O[C@H](C)CNCCCF)cc1[C@@H]1c2[nH]c3ccccc3c2C[C@@H](C)N1CC(F)(F)CO [Example 47, 2,2-difluoro-3-((1R,3R)-1-(5-(((R)-1-((3-fluoropropyl)amino)propan-2-yl)oxy)-2-methoxyphenyl)-3-methyl-1,3,4,9-tetrahydro-2H-pyrido[3,4-b]indol-2-yl)propan-1-ol] | 6.1
C[C@@H]1Cc2c([nH]c3ccccc23)[C@@H](c2c(F)c(F)cc(OCCNCCCF)c2F)N1CC(F)(F)F [Example 32, 3-fluoro-N-(2-(2,4,5-trifluoro-3-((1R,3R)-3-methyl-2-(2,2,2-trifluoroethyl)-2,3,4,9-tetrahydro-1H-pyrido[3,4-b]indol-1-yl)phenoxy)ethyl)propan-1-amine] | 0.52
C[C@@H]1Cc2c([nH]c3ccc(F)cc23)[C@@H](c2c(F)cnc(OCCNCCCF)c2F)N1CC1(F)CC1 [Example 109, N-(2-((3,5-difluoro-4-((1R,3R)-6-fluoro-2-((1-fluorocyclopropyl)methyl)-3-methyl-2,3,4,9-tetrahydro-1H-pyrido[3,4-b]indol-1-yl)pyridin-2-yl)oxy)ethyl)-3-fluoropropan-1-amine] | 1.9
C[C@@H]1Cc2c([nH]c3ccccc23)[C@@H](c2c(F)ccc(OCCNCCCF)c2F)N1CC1(S(C)(=O)=O)CC1 [Example 77, N-(2-(2,4-difluoro-3-((1R,3R)-3-methyl-2-((1-(methylsulfonyl)cyclopropyl)methyl)-2,3,4,9-tetrahydro-1H-pyrido[3,4-b]indol-1-yl)phenoxy)ethyl)-3-fluoropropan-1-amine] | 5.5
Cc1c([C@@H]2c3[nH]c4ccccc4c3C[C@@H](C)N2CC(F)(F)CO)ccnc1OCCNCCCF [Example 103, 2,2-difluoro-3-((1R,3R)-1-(2-(2-((3-fluoropropyl)amino)ethoxy)-3-methylpyridin-4-yl)-3-methyl-1,3,4,9-tetrahydro-2H-pyrido[3,4-b]indol-2-yl)propan-1-ol] | 2
C[C@@H]1Cc2c([nH]c3ccccc23)[C@@H](c2nccc(OCCNCCCF)c2Cl)N1CC(F)(F)F [Example 93, N-(2-((3-chloro-2-((1S,3R)-3-methyl-2-(2,2,2-trifluoroethyl)-2,3,4,9-tetrahydro-1H-pyrido[3,4-b]indol-1-yl)pyridin-4-yl)oxy)ethyl)-3-fluoropropan-1-amine] | 0.34
Cc1c(OCCN(C)CCCF)ccc(F)c1[C@@H]1c2[nH]c3ccccc3c2C[C@@H](C)N1CCC(=O)O [Example 163, 3-((1R,3R)-1-(6-fluoro-3-(2-((3-fluoropropyl)(methyl)amino)ethoxy)-2-methylphenyl)-3-methyl-1,3,4,9-tetrahydro-2H-pyrido[3,4-b]indol-2-yl)propanoic Acid] | 49
COc1ccc(OCCNCCCF)c(F)c1[C@@H]1c2[nH]c3ccccc3c2C[C@@H](C)N1CC1(F)CC1 [Example 83, 3-fluoro-N-(2-(2-fluoro-3-((1R,3R)-2-((1-fluorocyclopropyl)methyl)-3-methyl-2,3,4,9-tetrahydro-1H-pyrido[3,4-b]indol-1-yl)-4-methoxyphenoxy)ethyl)propan-1-amine] | 2.5
Cc1c(OCCNCCCF)ccc(F)c1[C@@H]1c2[nH]c3ccccc3c2C[C@@H](C)N1CC(F)(F)C(=O)O [Example 118, 2,2-difluoro-3-((1R,3R)-1-(6-fluoro-3-(2-((3-fluoropropyl)amino)ethoxy)-2-methylphenyl)-3-methyl-1,3,4,9-tetrahydro-2H-pyrido[3,4-b]indol-2-yl)propanoic acid] | 8.4
COc1ccc(NCCNCCCF)c(F)c1[C@@H]1c2[nH]c3ccccc3c2C[C@@H](C)N1CC(F)(F)F [Example 90, N1-(2-fluoro-4-methoxy-3-((1R,3R)-3-methyl-2-(2,2,2-trifluoroethyl)-2,3,4,9-tetrahydro-1H-pyrido[3,4-b]indol-1-yl)phenyl)-N2-(3-fluoropropyl)ethane-1,2-diamine] | 1.1
C[C@@H]1Cc2c([nH]c3ccccc23)[C@@H](c2c(F)ccc(OCCNCCCF)c2Cl)N1CC(C)(C)C(=O)O [Example 131, 3-((1R,3R)-1-(2-chloro-6-fluoro-3-(2-((3-fluoropropyl)amino)ethoxy)phenyl)-3-methyl-1,3,4,9-tetrahydro-2H-pyrido[3,4-b]indol-2-yl)-2,2-dimethylpropanoic acid] | 32
